20 compounds from US20110190235A1, “BORON-CONTAINING SMALL MOLECULES AS ANTIPROTOZOAL AGENTS” (Anacor Pharmaceuticals, Inc., priority 2009, published 2011) can be followed below.

A short description of data set [1]: Pharmacokinetic studies in mice (plasma, brain). It is filed as in vivo. Particulars: male, CD-1, mouse, 8 mg/kg, oral; for CL/F / half-life: mice (Table 3a); for CL/F: read-out: Oral Clearance Cl/F (converted); for half-life: read-out: t½ (converted); for Cmax / AUC(0-inf) / AUC(0-t): mice, normalized to 25 mg/kg (Table 3a); for AUC(0-inf): read-out: Exposure/trapezoid AUC0-inf; for AUC(0-t): read-out: Exposure/trapezoid AUC0-last. Here is the method:
Male CD-1 mice weighing approximately 25 g received the test article (E19 or 82 or E14 or 69) by either intravenous (IV), oral gavage (OG) or intra-peritoneal (IP) routes. Animals in IV group (6-10 animals, 1-2 per time point) received a single bolus injection of approximately 2 mg/kg of the test article. Animals receiving […], or as 4 repeat doses ([…], 1-2 per time point).
All doses were administered as clear colorless solutions in either: 50% (v/v) PEG400:20% (v/v) ethanol:30% (v/v) carboxymethylcellulose (0.5% w/v in sterile water for injection, WFI), or as in situ sodium salts in 5% (m/v) dextrose:2% (v/v) ethanol in DWI. All dose solutions were delivered at 4 mL/kg. Animals were fasted for at least 4 hours before dosing, and for 2 hours after dosing.
Blood samples and brain tissue were sampled from 1 or 2 animals/timepoint/group immediately before dosing and approximately 0.17, 0.5, 1, 2, 3, 4, 6, 8, 12, 18 and 24 hr after dosing for full pharmacokinetic and tissue analysis, or at 0.5, 2 and 4 hours post dosing to assess early-phase CNS disposition.
Bioanalysis for test article in whole blood, plasma or brain tissue was performed by HPLC with tandem mass spectrometry (LC-MSMS). Whole blood and plasma samples were treated with 3 volumes of either acetonitrile or methanol to precipitate plasma proteins. Treated samples were centrifuged and supernatants removed for analysis. Brain tissues were weighed and homogenized mechanically in the presence of 1 volume of phosphate-buffered saline (PBS). The resulting tissue suspensions were then diluted with a further volume of PBS, and then treated in the same manner as whole blood or plasma.
Extracted samples were assayed for test article by means of LC-MSMS employing reversed-phase chromatography coupled to a triple quadrupole mass spectrometer employing electrospray ionization in the positive ion mode. The analytical column was a Phenomenex Luna 3μ C8 50×2 mm, with an online sample purification step performed on a Phenomenex Synergi 4μ Polar RP 50×2 mm column.
Test articles were eluted using a binary mobile phase gradient comprising 5 mM Ammonium Acetate: 0.1% formic acid in either MeOH or H2O.
Non-compartmental analysis of plasma test article concentration versus time was performed in Microsoft Excel to generate pharmacokinetic parameters including: area under the curve (AUC), clearance (as Cl or Cl/F), volume of distribution (Vdss), half-life (t½), and bioavailability (F).

The nature of data set [2]: L929 cytotoxicity evaluation (resazurin). Particulars: mouse, L929 mouse fibroblast cells; 72 hrs incubation; read-out: Cytotox L-929 IC50. The data set is classed as cell-based. In outline: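 Mouse L929 fibroblasts (1×10^4/mL seeding, attached overnight) were treated 72 h at 37 °C, 5% CO2 with serially diluted compounds in DMSO in D-MEM/10% FBS. Viability read by resazurin fluorescence after 3–4 h (ex 544/em 590 nm); IC50 from sigmoidal fits of single data points.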

For data set [3], the system named is bloodstream-form trypanosome T. brucei brucei 427 strain. Description: Trypanosoma brucei brucei high-throughput in vitro drug sensitivity assay (resazurin). The data set is classed as cell-based. Particulars: for Selectivity Index (L929 IC50 / T. b. brucei IC50): T. b. brucei vs L929; for IC50: Trypanosoma brucei, 72 hrs incubation. (In general: The colour change of resazurin is a common sign of viable cells or microbes.)

Molecules are shown by their SMILES. Values after ≈ are worked out from the molar mass of the structure shown. Like-named read-outs stand apart in the source and are kept apart here.

For orientation: Cmax means the highest concentration seen after dosing. `O=C(Nc1ccc2c(c1)B(O)OC2)c1ccc(F)cc1Cl` [E14, 2-Chloro-4-fluoro-N-(1-hydroxy-1,3-dihydro-benzo[c][1,2]oxaborol-6-yl)-benzamide]: in data set [1] (brain), the CL/F is 134 mL/min/kg, the half-life was 1.6 h, the Cmax was found to be 2440 ng/mL and the AUC(0-inf) is 3150 ng·h/mL. Moreover, the AUC(0-t) in data set [1] (brain) came out at 3120 ng·h/mL. For the same compound, in data set [1] (plasma), the CL/F is 28.8 mL/min/kg, the half-life was 2.97 h, the highest concentration (Cmax) was determined as 3590 ng/mL and the AUC(0-inf) is 15200 ng·h/mL. In data set [1] (plasma), the AUC(0-t) was 14400 ng·h/mL.

In general, IC50 refers to the midpoint of a concentration-inhibition curve. With `CC1(C)OB(O)c2cc(NC(=O)c3ccc(F)cc3Br)ccc21` [compound 74, 2-Bromo-4-fluoro-N-(1-hydroxy-3,3-dimethyl-1,3-dihydro-benzo[c][1,2]oxaborol-6-yl)-benzamide], in data set [2], the IC50 at 72 h is greater than 10 µg/mL. Moreover, the “Selectivity Index (L929 IC50 / T. b. brucei IC50)” value in data set [3] is greater than 18. Moreover, the values for the IC50 in data set [3] (read-out: T. b. brucei IC50) and in data set [3] (read-out: T.b. brucei IC50) were 1.49 µM and 0.564 µg/mL, respectively.

In the case of `CC1(C)OB(O)c2cc(NC(=O)c3ccc(OC(F)(F)F)cc3)ccc21` [compound 53, N-(1-Hydroxy-3,3-dimethyl-1,3-dihydro-benzo[c][1,2]oxaborol-6-yl)-4-trifluoromethoxy-benzamide], the IC50 at 72 h in data set [2] is greater than 10 µg/mL. In data set [3] (read-out: T.b. brucei IC50), the IC50 is 0.407 µg/mL.

As to `CC1(C)OB(O)c2cc(NC(=O)c3cc(Cl)ccc3F)ccc21` [compound 72, 5-Chloro-2-fluoro-N-(1-hydroxy-3,3-dimethyl-1,3-dihydro-benzo[c][1,2]oxaborol-6-yl)-benzamide], the half-maximal inhibitory concentration (IC50) at 72 h in data set [2] is greater than 10 µg/mL. Besides, the IC50 in data set [3] (read-out: T.b. brucei IC50) came out at 0.407 µg/mL.

For `CC1(C)OB(O)c2cc(NC(=O)c3ccccc3I)ccc21` [compound 40, N-(1-Hydroxy-3,3-dimethyl-1,3-dihydro-benzo[c][1,2]oxaborol-6-yl)-2-iodo-benzamide], in data set [2], the half-inhibitory concentration (IC50) at 72 h is greater than 10 µg/mL. In data set [3] (read-out: T.b. brucei IC50), the IC50 is 0.599 µg/mL.

Turning to `CC1(C)OB(O)c2cc(NC(=O)c3cc([N+](=O)[O-])ccc3Cl)ccc21` [compound 92], the IC50 at 72 h in data set [2] was 2.68 µg/mL (≈ 7.43 µM). Moreover, in data set [3] (read-out: T.b. brucei IC50), the IC50 was found to be 0.158 µg/mL.

With `CC1(C)OB(O)c2cc(NC(=O)c3ccc(C(F)(F)F)cc3C(F)(F)F)ccc21` [compound 79, N-(1-Hydroxy-3,3-dimethyl-1,3-dihydro-benzo[c][1,2]oxaborol-6-yl)-2,4-bis-trifluoromethyl-benzamide], the IC50 at 72 h in data set [2] is greater than 10 µg/mL. Moreover, the IC50 in data set [3] (read-out: T.b. brucei IC50) amounted to 1.1 µg/mL.

Consider `CC1OB(O)c2cc(NC(=O)c3ccccc3I)ccc21` (stereo not shown) [compound 15, N-(1-Hydroxy-3-methyl-1,3-dihydro-benzo[c][1,2]oxaborol-6-yl)-2-iodo-benzamide], for which the IC50 at 72 h in data set [2] was 2.45 µg/mL (≈ 6.23 µM). In data set [3], the “Selectivity Index (L929 IC50 / T. b. brucei IC50)” value amounted to 36. In addition, the IC50 came to 0.173 µM in data set [3] (read-out: T. b. brucei IC50) and 0.068 µg/mL in data set [3] (read-out: T.b. brucei IC50).

Turning to `CC1OB(O)c2cc(NC(=O)c3cccc(Cl)c3)ccc21` (stereo not shown) [compound 11, 3-Chloro-N-(1-hydroxy-3-methyl-1,3-dihydro-benzo[c][1,2]oxaborol-6-yl)-benzamide], in data set [2], the IC50 at 72 h amounted to 6.06 µg/mL (≈ 20.1 µM). Also, the “Selectivity Index (L929 IC50 / T. b. brucei IC50)” value in data set [3] worked out at 168. The IC50 was found to be 0.119 µM in data set [3] (read-out: T. b. brucei IC50) and 0.036 µg/mL in data set [3] (read-out: T.b. brucei IC50).

With `Cc1ccc(C(=O)Nc2ccc3c(c2)B(O)OC3(C)C)cc1` [compound 29, N-(1-Hydroxy-3,3-dimethyl-1,3-dihydro-benzo[c][1,2]oxaborol-6-yl)-4-methyl-benzamide], in data set [2], the IC50 at 72 h was greater than 10 µg/mL. The IC50 in data set [3] (read-out: T.b. brucei IC50) stood at 3.62 µg/mL.

On to `Cc1cc(F)ccc1C(=O)Nc1ccc2c(c1)B(O)OC2(C)C` [compound 87, 4-Fluoro-N-(1-hydroxy-3,3-dimethyl-1,3-dihydro-benzo[c][1,2]oxaborol-6-yl)-2-methyl-benzamide], for which the 50% inhibitory concentration (IC50) at 72 h in data set [2] was greater than 10 µg/mL. Besides, the IC50 in data set [3] (read-out: T.b. brucei IC50) is 3.88 µg/mL.

Take `CC1(C)OB(O)c2cc(NC(=O)c3ccc([N+](=O)[O-])cc3Cl)ccc21` [compound 93]: the IC50 at 72 h in data set [2] is greater than 10 µg/mL. In addition, the IC50 in data set [3] (read-out: T.b. brucei IC50) was found to be 0.197 µg/mL.

Consider `CCCCCOc1ccc(C(=O)Nc2ccc3c(c2)B(O)OC3(C)C)cc1` [compound 50, N-(1-Hydroxy-3,3-dimethyl-1,3-dihydro-benzo[c][1,2]oxaborol-6-yl)-4-pentyloxy-benzamide], for which, in data set [2], the IC50 at 72 h was greater than 10 µg/mL. Moreover, the IC50 in data set [3] (read-out: T.b. brucei IC50) came out at 1.4 µg/mL.

On to `O=C(Nc1ccc2c(c1)B(O)OC21CC1)c1ccc(F)cc1C(F)(F)F` [compound 133], for which, in data set [2], the IC50 at 72 h was greater than 10 µg/mL. In addition, the “Selectivity Index (L929 IC50 / T. b. brucei IC50)” value in data set [3] came out at 100. Further, the IC50 in data set [3] (read-out: T.b. brucei IC50) was found to be 0.191 µg/mL.

Regarding `CC1(C)OB(O)c2cc(NC(=O)c3ccc(Cl)cc3F)ccc21` [compound 71, 4-Chloro-2-fluoro-N-(1-hydroxy-3,3-dimethyl-1,3-dihydro-benzo[c][1,2]oxaborol-6-yl)-benzamide], the IC50 at 72 h in data set [2] was greater than 10 µg/mL. In data set [3] (read-out: T.b. brucei IC50), the IC50 was determined as 0.697 µg/mL.

As for `CC1(C)OB(O)c2cc(NC(=O)c3ccc(C(F)(F)F)cc3F)ccc21` [compound 84, 2-Fluoro-N-(1-hydroxy-3,3-dimethyl-1,3-dihydro-benzo[c][1,2]oxaborol-6-yl)-4-trifluoromethyl-benzamide], in data set [2], the IC50 at 72 h was greater than 10 µg/mL. For the same compound, the IC50 in data set [3] (read-out: T.b. brucei IC50) is 0.533 µg/mL.

With `CC1(C)OB(O)c2cc(NC(=O)c3ccc(-c4ccccc4)cc3)ccc21` [compound 62, Biphenyl-4-carboxylic acid (1-hydroxy-3,3-dimethyl-1,3-dihydro-benzo[c][1,2]oxaborol-6-yl)-amide], the IC50 at 72 h in data set [2] was greater than 10 µg/mL. Further, the IC50 in data set [3] (read-out: T.b. brucei IC50) amounted to 0.365 µg/mL.

For the compound `CC1(C)OB(O)c2cc(NC(=O)c3ccoc3)ccc21` [compound 120, Furan-3-carboxylic acid (1-hydroxy-3,3-dimethyl-1,3-dihydro-benzo[c][1,2]oxaborol-6-yl)-amide], the IC50 at 72 h in data set [2] was greater than 10 µg/mL. The IC50 in data set [3] (read-out: T.b. brucei IC50) is greater than 5 µg/mL.

`Cc1ccc(C(=O)Nc2ccc3c(c2)B(O)OC3(C)C)c(C)c1` [compound 78, N-(1-Hydroxy-3,3-dimethyl-1,3-dihydro-benzo[c][1,2]oxaborol-6-yl)-2,4-dimethyl-benzamide]: in data set [2], the IC50 at 72 h was greater than 10 µg/mL. Besides, the IC50 in data set [3] (read-out: T.b. brucei IC50) was determined as 1.1 µg/mL.

On to `CC1(C)OB(O)c2cc(NC(=O)c3c(F)cccc3Cl)ccc21` [compound 73, 2-Chloro-6-fluoro-N-(1-hydroxy-3,3-dimethyl-1,3-dihydro-benzo[c][1,2]oxaborol-6-yl)-benzamide], for which the IC50 at 72 h in data set [2] was greater than 10 µg/mL. The 50% inhibitory concentration (IC50) in data set [3] (read-out: T.b. brucei IC50) was found to be 2.44 µg/mL.
